Experimental findings from publication PMC9886975, “Ligand recognition mechanism of the human relaxin family peptide receptor 4 (RXFP4)” (Nature Communications, 2023) are described below.

One assay addresses T1, RXFP4 WT (Homo sapiens, UniProt Q8TDU9).
T1 construct: RXFP4(1-374)-; expressed in transfected cells; host or cells: HEK293T, transient (pCMV6)
Nature of the assay: cAMP accumulation, WT RXFP4 (HEK293T). It counts as cell-based. The note with it: 1.5 μM forskolin, mean ± S.E.M.; for EC50: 40 min RT, TR-FRET, n = 6 to 8. The source says: (§1) The full-length human RXFP4 (NCBI Reference Sequence: NM_181885.3) was cloned into a modified pFastBac vector (Invitrogen) with HA signal peptide to enhance receptor expression, followed by a 10× histidine tag and BRIL insertion at the N terminus. LgBiT subunit (Promega) was fused at the C terminus of RXFP4 connected by a 15-amino acid polypeptide linker. […] The engineered human Gαi2, Gβ1, bovine Gγ2, and scFv16 were cloned into the pFastBac vector (Invitrogen), respectively. For cAMP accumulation assay, human RXFP4 and RXFP3 (NCBI Reference Sequence: NM_016568.3) were cloned into pCMV6 constructs (OriGene Technologies). The mutant receptors were modified by site-directed mutagenesis in the setting of the WT constructs, with the primers designed by QuikChange Primer Design [QuickChange Primer Design (http://agilent.com.cn)] and carried out using Phanta Max Master (Vazyme). N-terminal Flag tag was added to both WT and mutant receptors for surface expression measurement. Sequences of all primers used in this study were provided in Supplementary Table 6, and all the constructs were confirmed by DNA sequencing.
(§2) CHO-K1 (ATCC, Cat#CCL-61) cells stably expressing human RXFP4 (hRXFP4-CHO) or RXFP3 (hRXFP3-CHO) were maintained in DMEM/F12 (Gibco) supplemented with 10% (v/v) fetal bovine serum (FBS) and 2 mM L-glutamine. Human embryonic kidney 293 T cells containing SV40 large T-antigen (HEK293T, ATCC, Cat#64127316) were maintained in DMEM (Gibco) supplemented with 10% (v/v) FBS, 1 mM sodium pyruvate (Gibco), 100 units/mL penicillin and 100 μg/mL streptomycin at 37 °C in 5% CO2. For cAMP assays in mutants, HEK293T cells were seeded onto 6-well cell culture plates at a density of 7 × 10^5 cells per well. […] Following 24 h culturing, the transfected cells were ready for detection.
(§3) Ligands were verified for their bioactivity in the beginning in hRXFP4-CHO, which were ready for use after 24 h culturing. […] The time-resolved fluorescence resonance energy transfer (TR-FRET) signals were detected by an EnVision multilabel plate reader (PerkinElmer) with the emission window ratio of 665 nm over 620 nm under 320 nm excitation. […]
(§4) Inhibition of forskolin-induced cAMP accumulation was performed in HEK293T cells transiently transfected with WT and mutant receptors. All the mutant constructs were modified by single-point mutation in the setting of the WT receptor. cAMP accumulation data were analyzed using a three-parameter logistic equation to determine pEC50 and Emax values. Emax values for mutants are defined as the window between the maximal response and vehicle control (no ligand) and expressed as a percentage of the WT. Cell surface expression was assessed by flow cytometry to detect the N-terminal Flag epitope label on the receptors and normalized to the WT receptor (shown as percentage). […]
A general note: Changes in cAMP serve as a functional read-out for many G protein-coupled receptors.

The target of assay [1] is T2, human RXFP4 (Homo sapiens, UniProt Q8TDU9).
T2 construct: expressed in transfected cells
The experiment in a line: inhibition of forskolin-induced cAMP accumulation, WT RXFP4 (hRXFP4-CHO). It counts as cell-based. The procedure: (§5) CHO-K1 (ATCC, Cat#CCL-61) cells stably expressing human RXFP4 (hRXFP4-CHO) or RXFP3 (hRXFP3-CHO) were maintained in DMEM/F12 (Gibco) supplemented with 10% (v/v) fetal bovine serum (FBS) and 2 mM L-glutamine. Human embryonic kidney 293 T cells containing SV40 large T-antigen (HEK293T, ATCC, Cat#64127316) were maintained in DMEM (Gibco) supplemented with 10% (v/v) FBS, 1 mM sodium pyruvate (Gibco), 100 units/mL penicillin and 100 μg/mL streptomycin at 37 °C in 5% CO2. For cAMP assays in mutants, HEK293T cells were seeded onto 6-well cell culture plates at a density of 7 × 10^5 cells per well. After overnight incubation, cells were transfected with WT or mutant receptors using Lipofectamine 3000 transfection reagent (Invitrogen). Following 24 h culturing, the transfected cells were ready for detection.
(§6) Ligands were verified for their bioactivity in the beginning in hRXFP4-CHO, which were ready for use after 24 h culturing. For assaying mutants, HEK293T cells were used 24 h post transfection. Cells were digested with 0.02% (w/v) EDTA and seeded onto 384-well microtiter plates at a density of 8 × 10^5 cells/mL in cAMP stimulation buffer [HBSS supplemented with 5 mM HEPES, 0.1% (w/v) bovine serum albumin (BSA) and 0.5 mM 3-isobutyl-1-methylxanthine]. The cells were stimulated with different concentrations of ligands plus 1.5 μM forskolin in RXFP4 and 4 μM forskolin in RXFP3. […] The time-resolved fluorescence resonance energy transfer (TR-FRET) signals were detected by an EnVision multilabel plate reader (PerkinElmer) with the emission window ratio of 665 nm over 620 nm under 320 nm excitation. […]
(§7) All functional study data were analyzed using GraphPad Prism 8.3 (GraphPad Software) and presented as means ± S.E.M. from at least three independent experiments. Dose-response curves were evaluated with a three-parameter logistic equation. The significance was determined with either a two-tailed Student’s t-test or one-way ANOVA with Dunnett’s multiple comparison test, and P < 0.05 was considered statistically significant.

The target of another assay is T3, RXFP4 L118S+V122S (Homo sapiens, UniProt Q8TDU9, L118S/V122S).
T3 construct: RXFP4(1-374)-; expressed in transfected cells; host or cells: HEK293T, transient (pCMV6)
The experiment in a line: cAMP accumulation, RXFP4 L118S+V122S. It counts as cell-based. To be noted: HEK293T.
Description: as §1, §2, §3, §4

The target in a further assay is T4, RXFP4 H299A (Homo sapiens, UniProt Q8TDU9, H299A).
T4 construct: RXFP4(1-374)-; expressed in transfected cells; host or cells: HEK293T, transient (pCMV6)
The experiment in a line: cAMP accumulation, RXFP4 H299A. In kind it is cell-based.
Description: as §1, §5, §6, §4

The next assay deals with T5, RXFP4 R194A (Homo sapiens, UniProt Q8TDU9, R194A).
T5 construct: RXFP4(1-374)-; expressed in transfected cells; host or cells: HEK293T, transient (pCMV6)
Nature of the assay: cAMP accumulation, RXFP4 R194A. In kind it is cell-based.
Description: as §1, §5, §6, §4

Assay [2] concerns the target T2, human RXFP4. The experiment in a line: competitive Eu-R3/I5 binding, RXFP4. The method, then: CHO-K1 cells stably transfected with RXFP3 or RXFP4 were plated onto pre-coated poly-L-lysine 96-well plates. The competitive binding assays were performed with 5 nM Eu-H3 B1-22R (RXFP3) or Eu-R3/I5 (RXFP4) in the presence of increasing amounts of ligands as previously described[21],[86],[87]. Time-resolved fluorescence measurements were carried out at an excitation wavelength of 340 nm and an emission wavelength of 614 nm on a BMG POLARstar plate reader (BMG Labtech, Melbourne, Australia). Binding was performed in at least three independent experiments with triplicate determinations within each assay. Data are presented as means ± S.E.M. of specific binding and were fitted using a one-site binding curve in Prism software (GraphPad).
as §7

The target of the next assay is T6, RXFP4 F105A (Homo sapiens, UniProt Q8TDU9, F105A).
T6 construct: RXFP4(1-374)-; expressed in transfected cells; host or cells: HEK293T, transient (pCMV6)
The experiment in a line: cAMP accumulation, RXFP4 F105A. It counts as cell-based.
Description: as §1, §5, §6, §4

The next assay addresses T7, RXFP4 W97A (Homo sapiens, UniProt Q8TDU9, W97A).
T7 construct: RXFP4(1-374)-; expressed in transfected cells; host or cells: HEK293T, transient (pCMV6)
Nature of the assay: cAMP accumulation, RXFP4 W97A. It counts as cell-based.
Description: as §1, §5, §6, §4

Another assay deals with T8, RXFP4 K273A (Homo sapiens, UniProt Q8TDU9, K273A).
T8 construct: RXFP4(1-374)-; expressed in transfected cells; host or cells: HEK293T, transient (pCMV6)
Nature of the assay: cAMP accumulation, RXFP4 K273A. It counts as cell-based.
Description: as §1, §2, §3, §4

Setting [3] is: HEK293T, 1.5 μM forskolin, mean ± S.E.M., n = 3, N.A., not active, read-out: pEC50 (converted).
Where [4] appears, read: HEK293T, 1.5 μM forskolin, mean ± S.E.M., n = 3, read-out: pEC50 (converted).

Structures are written as SMILES. Where “and” joins values, the source holds several entries; their conditions need not be identical. Equal entries are not always repeated. Where two headings read alike, the source gives them in different places.

T8 sequence (Q8TDU9 whole entry K273A): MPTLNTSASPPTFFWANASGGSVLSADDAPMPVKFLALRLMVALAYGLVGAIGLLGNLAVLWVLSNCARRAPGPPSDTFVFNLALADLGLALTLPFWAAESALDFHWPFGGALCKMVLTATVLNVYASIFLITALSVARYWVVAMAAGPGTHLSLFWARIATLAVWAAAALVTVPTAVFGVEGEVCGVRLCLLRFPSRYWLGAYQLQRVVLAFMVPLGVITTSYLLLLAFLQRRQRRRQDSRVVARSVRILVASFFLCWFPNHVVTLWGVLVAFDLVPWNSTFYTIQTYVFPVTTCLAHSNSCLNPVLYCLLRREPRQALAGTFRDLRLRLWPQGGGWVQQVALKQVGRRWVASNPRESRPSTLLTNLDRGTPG
T3 sequence (Q8TDU9 whole entry L118S/V122S): as the sequence (Q8TDU9 whole entry K273A) above, with L118S, V122S, A273K counted along it
T6 sequence (Q8TDU9 whole entry F105A): as the sequence (Q8TDU9 whole entry K273A) above, with F105A, A273K counted along it
T5 sequence (Q8TDU9 whole entry R194A): as the sequence (Q8TDU9 whole entry K273A) above, with R194A, A273K counted along it
T1 sequence (Q8TDU9 whole entry): as the sequence (Q8TDU9 whole entry K273A) above, with A273K counted along it
T2 sequence (Q8TDU9 whole entry): as the sequence (Q8TDU9 whole entry K273A) above, with A273K counted along it
T4 sequence (Q8TDU9 whole entry H299A): as the sequence (Q8TDU9 whole entry K273A) above, with A273K, H299A counted along it
T7 sequence (Q8TDU9 whole entry W97A): as the sequence (Q8TDU9 whole entry K273A) above, with W97A, A273K counted along it

For the molecule `CCOc1cc2c(cc1OC)CCN(C(=O)N1CCOCC1)[C@H]2CCc1c[nH]c2ccc(OC)cc12` [DC591053, (S)-(7-ethoxy-6-methoxy-1-(2-(5-methoxy-1H-indol-3-yl)ethyl)−3,4-dihydroisoquinolin-2(1H)-yl)(morpholino)methanone], the EC50 on RXFP4 WT (HEK293T, read-out: pEC50 (converted)) was 34.7 nM; on human RXFP4 [1] (stably-transfected CHO-K1, 1.5 μM forskolin, 40 min RT, TR-FRET, mean ± S.E.M., n = 3, read-out: pEC50 (converted)), 57.5 nM; on RXFP4 L118S+V122S (1.5 μM forskolin, mean ± S.E.M., n = 3, N.A., not active) it was 724 nM; on RXFP4 H299A (setting [3]), 3.63 nM; on RXFP4 R194A (setting [4]) it was 282 nM; at RXFP4 F105A (setting [4]), 170 nM. In addition, the EC50 at RXFP4 W97A (setting [3]) was 56.2 nM; on RXFP4 K273A (HEK293T, 1.5 μM forskolin, mean ± S.E.M., n = 3 or 4, read-out: pEC50 (converted)), 1860 nM. The Emax is on record as 97.18 ± 3.11 % WT on RXFP4 WT (HEK293T); 84.85 ± 8.36 % WT on RXFP4 L118S+V122S (mean ± S.E.M.); 36.04 ± 4.01 % WT at RXFP4 H299A (HEK293T, mean ± S.E.M.); 81.10 ± 7.60 % WT at RXFP4 R194A (HEK293T, mean ± S.E.M.); 57.39 ± 4.17 % WT on RXFP4 F105A (HEK293T, mean ± S.E.M.); 108.65 ± 10.04 % WT on RXFP4 W97A (HEK293T, mean ± S.E.M.). Moreover, the Emax on RXFP4 K273A (HEK293T, mean ± S.E.M.) came out at 68.51 ± 8.34 % WT. Besides, on human RXFP4 [1] (stably-transfected CHO-K1), the “agonism” value is on record as “full agonism”. In addition, the “decrease of potency vs WT” value at RXFP4 L118S+V122S came out at 20.9 fold; at RXFP4 R194A (HEK293T), 8.1 fold; on RXFP4 F105A (HEK293T) it was 4.9 fold; at RXFP4 W97A (HEK293T), 1.6 fold. Besides, the “reduction of Emax vs WT” value at RXFP4 H299A (HEK293T) turned out to be 65%. In addition, the Ki on human RXFP4 [2] (stably-transfected CHO-K1, 5 nM Eu-R3/I5, mean ± S.E.M., n = 3, read-out: pKi (converted)) was 112 nM.
Consider `CC[C@H](C)[C@@H]1NC(=O)[C@H](Cc2ccc(O)cc2)NC(=O)[C@H]([C@@H](C)CC)NC(=O)[C@H](C(C)C)NC(=O)[C@H]([C@@H](C)O)NC(=O)[C@H](CCCNC(=N)N)NC(=O)[C@H]([C@@H](C)CC)NC(=O)[C@H](Cc2ccc(O)cc2)NC(=O)[C@H](CCC(=O)O)NC(=O)[C@H](CC(C)C)NC(=O)CNC(=O)[C@@H](NC(=O)[C@H](CC(C)C)NC(=O)[C@H](CCCNC(=N)N)NC(=O)[C@@H](NC(=O)[C@H](CO)NC(=O)[C@H](CCC(=O)O)NC(=O)[C@@H](N)CCCCN)C(C)C)CSSC[C@@H]2NC(=O)[C@@H](NC(=O)[C@H](CC(C)C)NC(=O)[C@@H](NC(=O)[C@H](CCC(N)=O)NC(=O)[C@H](CC(C)C)NC(=O)[C@H](CC(=O)O)NC(=O)[C@@H](N)CCC(N)=O)[C@@H](C)O)CSSC[C@H](NC(=O)CNC(=O)[C@H](CC(=O)O)NC(=O)[C@H]([C@@H](C)O)NC2=O)C(=O)N[C@@H](CO)C(=O)N[C@@H](CCSC)C(=O)N[C@@H]([C@@H](C)O)C(=O)N[C@@H](CC(=O)O)C(=O)N[C@@H](CC(C)C)C(=O)N[C@@H](CO)C(=O)N[C@@H](C)C(=O)N[C@@H](CC(C)C)C(=O)N[C@H](C(=O)O)CSSC[C@@H](C(=O)N[C@@H](C)C(=O)N[C@@H](CO)C(=O)N[C@@H](CO)C(=O)N[C@@H](CCCNC(=N)N)C(=O)N[C@@H](Cc2c[nH]c3ccccc23)C(=O)O)NC1=O` [INSL5, insulin-like peptide 5], for which the Emax is 99.88 ± 2.28 % WT and 98.86 ± 3.65 % WT on RXFP4 WT (HEK293T); 30.77 ± 3.77 % WT at RXFP4 H299A (HEK293T, mean ± S.E.M.); 79.76 ± 6.06 % WT at RXFP4 R194A (HEK293T, mean ± S.E.M.); 80.16 ± 4.08 % WT at RXFP4 F105A (HEK293T, mean ± S.E.M.); 61.33 ± 5.34 % WT at RXFP4 W97A (HEK293T, mean ± S.E.M.); 58.10 ± 7.38 % WT on RXFP4 K273A (HEK293T, mean ± S.E.M.). Moreover, the EC50 was 0.759 nM and 0.955 nM at RXFP4 WT (pEC50, HEK293T); 1.58 nM at human RXFP4 [1]; 0.955 nM at RXFP4 H299A; 1.66 nM on RXFP4 R194A; 10 nM on RXFP4 F105A; 15.5 nM at RXFP4 W97A. At RXFP4 K273A, this molecule gave an EC50 of 3.55 nM. Moreover, the “response” value at RXFP4 L118S+V122S is “inactive”. Also, the Ki at human RXFP4 [2] was 6.46 nM.
